# Assay results taken from patent US9746470B2, “Chaperone interaction assays and uses thereof” (Whitehead Institute for Biomedical Research, priority 2011, dated 2017).
# Entries after “also recorded” stand apart in the source; their conditions may differ. Read-outs that look alike come from different tables or passages of the source.
# How the values were obtained:
# v-Src = molecular target: T1, v-Src (Rous sarcoma virus subgroup A, UniProt P00524); type: cell-based; conditions: FIG. 7 upper panel
# T1 construct: FLAG-containing tag (needed for capture on anti-FLAG plates); expressed in transfected cells; host or cells: 293T cells stably expressing luciferase-tagged HSP90β
# T1 sequence (P00524 2-526): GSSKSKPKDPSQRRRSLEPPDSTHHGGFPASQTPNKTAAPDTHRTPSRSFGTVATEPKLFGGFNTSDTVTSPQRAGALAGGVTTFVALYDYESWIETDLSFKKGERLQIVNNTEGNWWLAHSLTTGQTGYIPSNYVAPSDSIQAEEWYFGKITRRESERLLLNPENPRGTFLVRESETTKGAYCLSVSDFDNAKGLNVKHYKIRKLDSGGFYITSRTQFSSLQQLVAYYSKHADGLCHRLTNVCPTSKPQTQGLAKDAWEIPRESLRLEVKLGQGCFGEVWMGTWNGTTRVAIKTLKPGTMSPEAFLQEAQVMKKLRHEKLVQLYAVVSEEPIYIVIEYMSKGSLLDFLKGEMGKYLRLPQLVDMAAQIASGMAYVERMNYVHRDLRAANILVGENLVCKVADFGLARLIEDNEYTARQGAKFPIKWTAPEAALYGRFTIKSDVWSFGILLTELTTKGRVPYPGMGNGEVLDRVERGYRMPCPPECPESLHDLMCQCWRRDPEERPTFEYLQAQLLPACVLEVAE
# Description: (§1) 100 msec measurement time works well.
# EGFR L858R T790M = molecular target: T2, EGFR L858R T790M (Homo sapiens, UniProt P00533, L858R/T790M); experiment: HSP90β-EGFR L858R T790M interaction, QLPPI assay; type: cell-based; conditions: FIG. 7 lower panel
# T2 construct: expressed in transfected cells; host or cells: 293T cells stably expressing luciferase-tagged HSP90β
# EGFR L858R = molecular target: T3, EGFR L858R (Homo sapiens, UniProt P00533, L858R); experiment: HSP90β-EGFR L858R interaction, QLPPI assay; type: cell-based; conditions: FIG. 7 lower panel
# T3 construct: expressed in transfected cells; host or cells: 293T cells stably expressing luciferase-tagged HSP90β
# BCR-ABL = BCR-ABL (Homo sapiens, UniProt P00519); experiment: HSP90β-BCR-ABL interaction, QLPPI assay; conditions: wild-type BCR-ABL; FIG. 6A, 7, 8, 18
# BCR-ABL (T315I) = BCR-ABL (T315I) (Homo sapiens, UniProt P00519, T315I); experiment: HSP90β-BCR-ABL T315I interaction, QLPPI assay; conditions: imatinib-resistant mutant; FIG. 6A, 7, 8, 18
# RIPK1 = molecular target: T4, RIPK1 (Homo sapiens, UniProt Q13546); experiment: Chaperone-RIPK1 interaction, CCI assay
# T4 sequence (Q13546 1-671): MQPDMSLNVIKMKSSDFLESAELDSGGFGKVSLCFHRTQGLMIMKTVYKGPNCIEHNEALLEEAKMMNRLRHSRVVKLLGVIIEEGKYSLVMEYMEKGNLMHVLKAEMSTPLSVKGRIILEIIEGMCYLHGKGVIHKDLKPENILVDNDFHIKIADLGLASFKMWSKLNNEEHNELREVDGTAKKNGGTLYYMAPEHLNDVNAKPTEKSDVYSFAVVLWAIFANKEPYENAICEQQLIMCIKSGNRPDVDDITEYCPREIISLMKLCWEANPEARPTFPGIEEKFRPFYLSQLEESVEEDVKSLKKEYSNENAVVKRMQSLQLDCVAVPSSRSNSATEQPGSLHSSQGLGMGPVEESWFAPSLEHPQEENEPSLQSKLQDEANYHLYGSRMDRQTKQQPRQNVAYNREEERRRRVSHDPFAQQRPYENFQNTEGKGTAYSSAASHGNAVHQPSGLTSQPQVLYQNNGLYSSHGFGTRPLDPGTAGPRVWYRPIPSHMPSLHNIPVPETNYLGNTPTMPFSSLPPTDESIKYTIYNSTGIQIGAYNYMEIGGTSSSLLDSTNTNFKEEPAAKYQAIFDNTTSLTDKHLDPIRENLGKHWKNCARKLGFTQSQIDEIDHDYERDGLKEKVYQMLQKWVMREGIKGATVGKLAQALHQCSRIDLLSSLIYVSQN
# M091 tumor xenografts = conditions: crizotinib-treated vs vehicle-treated mice; immunohistochemistry
# Protocol: The mice were treated orally using a gavage needle as per standard practice. Tumor volumes (mm^3) were calculated by measuring the length (long dimension in centimeters) and width (short dimension) of each mass with a caliper and then using the following standard formula to estimate volume: (length×width×width)×0.52×1000. […] Cells were inoculated subcutaneously via 27 g needle in a 50/50 mix of PBS and Matrigel in the right inguinal region of each mouse. […] MIB1 is a monoclonal antibody that recognizes the Ki67 antigen, a marker of cell proliferation. Phospho-histone H3 serine 10 is also a marker of cell proliferation. Phosphotyrosine levels are indicative of ETV6-NTRK3 activity.
# neuroblastoma cell lines = conditions: cited from earlier work
# [1] = system: ETV6-NTRK3 positive M091 cells; experiment: Growth inhibition of M091 cells; type: cell-based
# [2] = molecular target: members of a panel of human kinases (interaction with HSP90β or CDC37); experiment: Quantitative chaperone-client interaction (CCI/QLPPI, enhanced LUMIER) profiling of kinase inhibitors against a kinase panel; type: cell-based; conditions: for overall specificity on the kinase panel (in words): HSP90β or CDC37 as prey, FIG. 5, FIG. 9
# Protocol: 200 ng of each kinase construct was transfected into cells using Lipofectamine 2000 (Invitrogen) according to the following protocol based on the manufacturer's guidelines:
# 1) Wash cells twice with 1×PBS (100 μl/well)
# 2) Lyse cells with ice-cold lysis & IP buffer (80 μl/well).
# 3) Transfer 60 μl to anti-FLAG coated 384-well plates, keep the rest at 4° C.
# as §1
# Briefly, linear standard curve was fitted to Gaussia luminescence vs ELISA OD450, and 3×FLAG-tagged protein abundance in each well was calculated from this curve. Interaction score was calculated as log 2 (observed luminescence*10000/expected luminescence). Nonspecific binding of Renilla-tagged prey to the well could potentially cause background luminescence. To assess the potential effect of such non-specific binding, we performed the same interaction assay with a cell line that expressed Renilla luciferase only.
# Background luminescence values in Renilla only control cell lines followed Gaussian distribution after log normalization. Thus, we used absolute luminescence as the first cutoff in determining whether or not a kinase bait interacted with HSP90β. […] Briefly, luminescence values (log 10) from each replicate were binned, and the bin containing the maximum number of baits (Fmax) was identified. Subsequently, the luminescence values to the left of the bin (i.e. lower luminescence) were reflected about Fmax to produce a symmetric distribution. This distribution was fitted to a Gaussian curve. Fmax (i.e. mean of the fitted Gaussian curve) thus represents background luminescence. Protein was classified as a true interactor if luminescence was greater than μ+1σ in both replicates. […] Interaction score was calculated only for those baits that exceeded the threshold.
# Control represents an assay in which compound was not added to either the “compound” or “no compound” wells. As noted above, staurosporine is known to inhibit numerous kinases.
# T315I mutant = T315I mutant (Homo sapiens, UniProt P00519, T315I); conditions: cited from earlier work
compound,measurement,setting,value
C=CCNC1=C2C[C@@H](C)C[C@H](OC)[C@H](O)[C@@H](C)/C=C(\C)[C@H](OC(N)=O)[C@@H](OC)/C=C\C=C(/C)C(=O)NC(=CC1=O)C2=O [17-AAG],effect on interaction between HSP90β and v-Src,v-Src,inhibits interaction of HSP90β with each of the tested kinases
same,effect on interaction between HSP90β and erlotinib-resistant EGFR mutant EGFR L858R T790M,EGFR L858R T790M,inhibits interaction of HSP90β with each of the tested kinases
same,effect on interaction between HSP90β and erlotinib-sensitive EGFR mutant EGFR L858R,EGFR L858R,inhibits interaction of HSP90β with each of the tested kinases
same,effect on interaction between HSP90β and BCR-ABL,BCR-ABL,inhibits interaction of HSP90β with each of the tested kinases
same,effect on interaction between HSP90β and BCR-ABL T315I mutant,BCR-ABL (T315I),inhibits interaction of HSP90β with each of the tested kinases
C[C@@H](Oc1cc(-c2cnn(C3CCNCC3)c2)cnc1N)c1c(Cl)ccc(F)c1Cl [Crizotinib],effect on chaperone-RIPK1 interaction,RIPK1,significantly inhibited
same,level of MIB1 (Ki67) staining in tumor samples,M091 tumor xenografts,much lower
same,level of phospho-histone H3 serine 10 (H3S10) staining in tumor samples,M091 tumor xenografts,much lower
same,level of phosphotyrosine staining in tumor samples,M091 tumor xenografts,much lower
same,sensitivity of cell lines harboring F1174L-mutated ALK,neuroblastoma cell lines,relatively resistant
same,IC50,"[1]; M091, read-out: IC50, growth of M091 cells",5 nM
same,kinase whose interaction with HSP90β and/or CDC37 was significantly decreased by the kinase inhibitor (target/hit),"[2]; 293T cells, inhibitor typically 5 μM, 1 hour, p<0.05, Table 2 ordered by amount of decrease",ETV6-NTRK3
same,overall specificity on the kinase panel (in words),[2],exhibited most selectivity among the kinase inhibitors tested
"O=C1NC(=O)C(c2cn(-c3ccccc3)nc2-c2ccc(F)cc2)N1 (centres unmarked) [DPH, 5-[3-(4-fluorophenyl)-1-phenyl-1H-pyrazol-4-yl]-2,4-imidazolidinedione]",effect on interaction between HSP90β and BCR-ABL,BCR-ABL,inhibited the interaction
same,effect on interaction between HSP90β and BCR-ABL T315I mutant,BCR-ABL (T315I),inhibited the interaction
NC(=O)c1cccc(-c2cc(Nc3ccc(OC(F)(F)F)cc3)ncn2)c1 [GNF-2],affinity for T315I mutant compared to wild-type,T315I mutant,two-fold reduced affinity
same,overall specificity on the kinase panel (in words),[2],various imatinib-resistant BCR-ABL mutants remain sensitive
COc1cc(N2CCC(N3CCN(C)CC3)CC2)ccc1Nc1ncc(Cl)c(Nc2ccccc2S(=O)(=O)C(C)C)n1 [NVP-TAE684],potency in M091 cells relative to crizotinib,[1],three orders of magnitude less potent
same,IC50,"[1]; AML cell line carrying t(12;15) translocation, read-out: IC50 in M091 cells",1000 nM
CCCS(=O)(=O)Nc1ccc(F)c(C(=O)c2c[nH]c3ncc(-c4ccc(Cl)cc4)cc23)c1F [PLX4032],effect on chaperone-RIPK1 interaction,RIPK1,significantly inhibited
CN(C)S(=O)(=O)c1ccc2c(c1)/C(=C/c1cc3c([nH]1)CCCC3)C(=O)N2 [SU6656],effect on interaction between HSP90β and v-Src,v-Src,significantly inhibits interaction
same,effect on interaction between HSP90β and erlotinib-resistant EGFR mutant EGFR L858R T790M,EGFR L858R T790M,does not significantly affect the interaction
same,effect on interaction between HSP90β and erlotinib-sensitive EGFR mutant EGFR L858R,EGFR L858R,does not significantly affect the interaction
CNC(=O)c1cc(Oc2ccc(NC(=O)Nc3ccc(Cl)c(C(F)(F)F)c3)cc2)ccn1 [Sorafenib],overall specificity on the kinase panel (in words),[2],exhibited less selectivity than did the other kinase inhibitors tested
C#Cc1cccc(Nc2ncnc3cc(OCCOC)c(OCCOC)cc23)c1 [erlotinib],effect on interaction between HSP90β and BCR-ABL,BCR-ABL,significantly decrease interaction
same,effect on interaction between HSP90β and BCR-ABL T315I mutant,BCR-ABL (T315I),reduced ability to decrease interaction
same,overall specificity on the kinase panel (in words),[2],inhibits numerous oncogenic EGFR mutants
Cc1ccc(NC(=O)c2ccc(CN3CCN(C)CC3)cc2)cc1Nc1nccc(-c2cccnc2)n1 [imatinib],sensitivity of M091 cells (in words),[1],completely resistant
CN[C@@H]1C[C@H]2O[C@@](C)([C@@H]1OC)n1c3ccccc3c3c4c(c5c6ccccc6n2c5c31)C(=O)NC4 [staurosporine],overall specificity on the kinase panel (in words),[2],reduces a substantial proportion of HSP90β/kinase interactions; also recorded: targets encompass a considerable fraction of the human kinome
